From patent US12617779B2, “Self degradation-type CDK9 inhibitor prodrug and liposome encapsulating same” (Sumitomo Pharma Co., Ltd., priority 2021, dated 2026)
One block for each molecule: values may come before it.

Tests used:
[1] = mice, 2.5 mg/kg administration; cited from earlier work
[2] = Evaluation of conversion rate to active form in BALB/c mouse plasma (Experimental Example 3); type: in vitro ADME; details: BALB/c, mouse, 0.2 μmol/L
How it was run: (§1)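 Test compound at 0.2 μmol/L was incubated at 37° C in human or BALB/c mouse plasma and sampled at 0, 30 and 60 min or at 0, 60 and 120 min. Compound and Alvocidib were quantified by LC-MS/MS peak area. Attrition is relative to 0 min; conversion is relative to 0.2 μmol/L Alvocidib reference.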

[3] = Pharmacokinetic test, intravenous solution and liposome formulations in mice (Experimental Example 6); type: in vivo; details: female BALB/c mice
Description: This was used as a solution formulation.
This was used as a liposome formulation.
Hydrogenated soybean phosphatidylcholine (COATSOME NC-21E, manufactured by NOF CORPORATION, 3.238 g), cholesterol (manufactured by Sigma, 1.160 g) and 1,2-disteroyl-rac-glycero-3-methylpolyoxyethylen 2000 (SUNBRIGHT GS-020, manufactured by NOF CORPORATION, 0.983 g) were dissolved in tert-butyl alcohol (300 mL) warmed to 65° C. The solution was placed in an eggplant flask and frozen in a dry ice-acetone bath, and then the tert-butyl alcohol was removed by evaporation under reduced pressure to give a lipid mixture.
To the above lipid mixture was added to a 250 mM ammonium sulfate solution (100 mL), and the mixture was warmed to 65° C., and dispersed by a homogenizer (ULTRA-TURRAX, manufactured by IKA) to give a crude liposome dispersion. […] The solution was filtered through a 0.22 μm membrane filter to adjust the total lipid concentration to 75 mM (75 μmol/mL). […] The solution was adjusted to pH 5 to 6 with 1 mol/L aqueous sodium hydroxide solution, warmed in a 65° C. water bath for 3 minutes, and ice-cooled. The liposome outer solution was replaced with 10 mM tartrate buffer solution/10% sucrose solution (pH 4) using a dialysis cassette (Slide-A-Lyzer G2 Dialysis Cassettes 20K MWCO, manufactured by Thermo Scientific), followed by filtration through a 0.22 μm membrane filter to adjust the concentration.
The solution formulation or liposome formulation was instantly administered intravenously to 7-week-old female BALB/c mice, and the blood was collected over time from the jugular vein without anesthesia up to 24 hours after administration for the solution formulation administration group and up to 72 hours after administration for the liposome formulation administration group. […] The plasma sample was centrifuged, and the concentrations of the test compound and Alvocidib in the obtained supernatant were determined by LC-MS/MS.

[4] = Evaluation of conversion rate to active form in buffer solution (Experimental Example 1); type: physicochemical
How it was run: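 Conversion to Alvocidib and loss of parent were followed by HPLC over 3 h (samples at 0, 0.5, 1, 2, 3 h). Incubations used 25 umol/L compound at 37 °C across pH 5.0–7.4, in 50 mM citrate below pH 6.0 and 50 mM phosphate from pH 6.0 upward.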

[5] = Evaluation of conversion rate to active form in human plasma (Experimental Example 3); type: in vitro ADME; details: human, 0.2 μmol/L
How it was run: as §1

Compound: CN1CC[C@H](c2c(O)cc(O)c3c(=O)cc(-c4ccccc4Cl)oc23)[C@H](O)C1 [Alvocidib]
AUC [1]: 3.4 µmol·min/L

Production rate (%) of Alvocidib ([2]; 0 min): 6%
Residual rate (%) of test compound ([2]; 0 min): 100%
Production rate (%) of Alvocidib ([2]; 60 min): 48%
Residual rate (%) of test compound ([2]; 60 min): 48%
Production rate (%) of Alvocidib ([2]; 120 min): 66%
Residual rate (%) of test compound ([2]; 120 min): 33%
Blood retention of liposome formulation compared with the corresponding solution formulation [3]: did not show improved blood retention
Production rate of Alvocidib ([4]; pH7.4, 0 hr): 4.3%
Residual rate ([4]; pH7.4, 0 hr): 93.7%
Conversion to Alvocidib at pH 7.4 ([4]; pH 7.4, 37° C., up to 3 hours): slowly converted to Alvocidib
Production rate of Alvocidib ([4]; pH7.4, 0.5 hr): 4.4%
Residual rate ([4]; pH7.4, 0.5 hr): 93.6%
Production rate of Alvocidib ([4]; pH7.4, 1 hr): 4.5%
Residual rate ([4]; pH7.4, 1 hr): 95.1%
Production rate of Alvocidib ([4]; pH7.4, 2 hr): 4.7%
Residual rate ([4]; pH7.4, 2 hr): 94.9%
Production rate (%) of Alvocidib ([5]; 0 min): 5%
Residual rate (%) of test compound ([5]; 0 min): 100%
Production rate (%) of Alvocidib ([5]; 60 min): 12%
Residual rate (%) of test compound ([5]; 60 min): 89%
Production rate (%) of Alvocidib ([5]; 120 min): 15%
Residual rate (%) of test compound ([5]; 120 min): 89%
Compound: CCC(=O)O[C@@H]1CN(C)CC[C@@H]1c1c(O)cc(O)c2c(=O)cc(-c3ccccc3Cl)oc12 [Comparative Example 6]
